What was measured:
[1] = Degradation of apelin peptides by plasma from fasted normal NIH Swiss mice (rp-HPLC, MALDI-TOF MS); type: in vitro ADME
How it was run: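 Apelin peptides were incubated with plasma from fasted normal NIH Swiss mice for 4 h, and the reaction was stopped with TFA. Products were separated by C-8 rp-HPLC with detection at 214 nm. Peak fractions were identified by MALDI-TOF MS, giving fragment molecular weights and retention times.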

[2] = system: NIH Swiss mice fed a high-fat diet for 150 days; test: Acute and delayed i.p. glucose tolerance test, blood glucose and plasma insulin; type: in vivo; settings: acute, Table 4
How it was run: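 Diet-induced obese-diabetic mice (high-fat diet 150 days, 18 h fasted) received i.p. glucose (18 mmol/kg) alone or with apelin analogues (25 nmol/kg), or analogues given 2, 8 or 16 h beforehand. Tail blood glucose and plasma insulin sampled at 0, 15, 30, 60, 105 min; n=8, mean±SEM.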

male NIH Swiss mice = test: Acute effects of apelin analogues on voluntary food intake; type: in vivo
Procedure: Saline and peptide analogues were administered by intraperitoneal injection and cumulative food intake was monitored at 30, 60, 90 and 120 min after feeding.
Mice were habituated to a daily feeding regime of 3 h/day by progressively reducing the daily feeding period over 3 weeks. This was performed to ensure mice consumed entire daily food intake within 3 h, thereby allowing “peptide” effects to be measured over the known eating period of mice. On days 1 to 7, mice were supplied with food from 10:00 h to 20:00 h, on days 8 to 14, food was presented from 10:00 h to 19:00 h and on days 15 to 21, food was restricted to the 3 h interval from 10:00 h to 13:00 h. This regime was continued throughout the experimental period.
Mice that were habituated to a 3 h daily feeding regime were administered with an i.p. injection of saline (0.9% w/v NaCl) or apelin peptide (1-100 nmol/kg bw) at 10:00 h (n=8). Immediately following injection, food was initially weighed and then presented to the mice and subsequently weighed at 30 min intervals up to 180 min.

[3] = plasma incubation 4 h, fragment identified by MALDI-TOF MS
[4] = peptide 25 nmol/kg i.p. with glucose 18 mmol/kg

| Compound | remaining at 4 h, 263 µg/mL ([1]; NIH Swiss, pH 7.4, mouse plasma, 37° C., 4 h, mean ± SEM, 2 experiments, read-out: % intact peptide (4 h)) | half-life at 263 µg/mL ([1]; NIH Swiss, pH 7.4, mouse plasma, estimated by linear regression of % intact peptide against time, read-out: Half-life (t1/2) (converted)) | Rank order of stability ([1]; mouse plasma, 1 = most stable) | Degradation fragment, Peak 1 [1, 3] | Degradation fragment, Peak 2 [1, 3] | Rank order on basis of anti-hyperglycaemic efficacy [2] | Blood glucose as percent of glucose-alone control (lower = stronger glucose lowering) [2, 4] | Insulin secretion, where glucose alone = 100% [2, 4] | Reduction of food intake (male NIH Swiss mice; 100 nmol/kg i.p., at 90 min, FIG. 37) | Persistence of the food intake reduction (male NIH Swiss mice; 100 nmol/kg i.p., over 3 h, FIG. 37) | Increase of food intake, maximal, compared to saline treated control (male NIH Swiss mice; 25 nmol/kg i.p., 150 min, FIG. 39) |
| --- | --- | --- | --- | --- | --- | --- | --- | --- | --- | --- | --- |
| CSCC[C@H](NC(=O)[C@@H]1CCCN1C(=O)CNC(=O)[C@H](CCCCN)NC(=O)[C@H](Cc1cnc[nH]1)NC(=O)[C@H](CO)NC(=O)[C@H](CC(C)C)NC(=O)[C@H](CCCNC(=N)N)NC(=O)[C@@H]1CCCN1C(=O)[C@H](CCCNC(=N)N)NC(=O)[C@@H](N)CCC(N)=O)C(=O)N1CCC[C@H]1C(=O)N[C@@H](Cc1ccccc1)C(=O)O [Apelin-13, reference compound] | 25.4 ± 1.5% | 2.1 h | 14 | Apelin-13 (1-11) | Apelin-13 (1-12) | 6 | 92% ^ | 111% ^ | 16.7% | not sustainable over 3 h | – |
| CCCCCCCCCCCCCCCC(=O)N[C@@H](CCC(=O)NCCCC[C@H](NC(=O)[C@H](Cc1c[nH]cn1)NC(=O)[C@H](CO)NC(=O)[C@H](CC(C)C)NC(=O)[C@H](CCCNC(=N)N)NC(=O)[C@@H]1CCCN1C(=O)[C@H](CCCNC(=N)N)NC(=O)[C@@H](N)CCC(N)=O)C(=O)NCC(=O)N1CCC[C@H]1C(=O)N[C@@H](CCSC)C(=O)N1CCC[C@H]1C(=O)N[C@H](C(=O)O)C(C)C)C(=O)O [Lys^8GluPAL(Val^13)apelin-13] | – | – | – | – | – | – | – | – | – | – | 9.2% |

Reference: patent US10118954B2, “Apelin analogues” (University of Ulster, priority 2014, dated 2018)
